Assay results as given in PMC3591457, “Biodistribution and Elimination Study of Fluorine-18 Labeled N^ε-Carboxymethyl-Lysine following Intragastric and Intravenous Administration” (PLoS ONE, 2013).

Columns and labels:
HepG2 cells = test: Cell uptake of ^18F-CML and native CML in HepG2 cells; type: cell-based; details: incubation 2 hours
Procedure: (§1) To compare the different bioactivities of CML and ^18F-CML, two cell lines were evaluated for their capacity to take up native CML and the fluorobenzoylated derivative ^18F-CML. RAW264.7 macrophages and HepG2 liver cells were cultured in DMEM/LOWGLUCOSE, supplemented with 10% fetal bovine serum (FBS), 4.0 mmol/L L-glutamine, 110 mg/L sodium pyruvate, 100 U/mL penicillin, and 100 mg/L streptomycin at 37°C and 5% CO2.
(§2) For ^18F-CML cell uptake studies, RAW264.7 cells and HepG2 cells were seeded into 24-well plates at a density of 4×10^5 cells per well. Radio-tracer ^18F-CML (0.5 µCi/well, 3 µmol/mL) was incubated in a 37°C water bath for 15, 30, 60, and 120 min. At each time point the cells were washed 3 times with phosphate-buffered saline (PBS). The supernatant, washing-up liquid (unbound activity) and the pellet (cell-bound activity) were transferred to new tubes. Triplicates of the counting tubes containing supernatant and cell pellet were counted individually using a gamma counter for 1 min. For the blocking experiment, the uptake was carried out in the presence of the non-radioactive CML(10 µmol/mL) and processed similarly as described above. The uptake (%) of radio-tracer into the cell was determined using a gamma counter according to the following equation: [drawing 1]
(§3) For CML cell uptake ratio studies, unaltered CML (10 µmol/mL) was added to RAW264.7 and HepG2 cell pellets individually. The total proteins of each cell line were initially extracted from the lysates of 4×10^5 cells. […] The supernatants were purified and detected usingby the method described by Drusch et al., which uses an RP-HPLC method with an ortho-phthaldialdehyde (OPA)-derivatisation and fluorescence detection suited for automation. The HPLC analysis method used a 250 mm×4.6 mm C18 column (GROM-SIL 100 ODS-0 AB, Herrenberg, Germany) and detected the fluorescence excitation at 340 nm and emission at 455 nm. The peak identification of CML was confirmed by the retention time and standard addition and was quantified using an external standard. The amount of CML was calculated and expressed as a percentage.

RAW264.7 cells = test: Cell uptake of ^18F-CML and native CML in RAW264.7 cells; type: cell-based; details: incubation 2 hours
Procedure: as §1, §2, §3

Structure (SMILES): NC(CCCCNCC(=O)O)C(=O)O (stereo not shown) [CML, N^ε-carboxymethyl-lysine]
- Uptake ratio of unaltered CML, amount less than ^18F-CML (HepG2 cells; P<0.01): 0.2%
- Uptake of unaltered CML (HepG2 cells; n=3): 6.3 µg/mg of cell protein
- Uptake ratio of unaltered CML, amount less than ^18F-CML (RAW264.7 cells; P<0.01): 0.3%
- Uptake of unaltered CML (RAW264.7 cells; n=3): 8.2 µg/mg of cell protein
